Measurements published in patent US9199028B2, “Use of entrained neutrophils to treat metastatic and micrometastatic disease in at risk patients” (MEMORIAL SLOAN-KETTERING CANCER CENTER, priority 2010, dated 2015).
Entries after “also recorded” stand apart in the source; their conditions may differ.

B1: CCL4: CC chemokine (protein, UniProt P13236 24-92, looked up)
C-C motif chemokine 4: APMGSDPPTACCFSYTARKLPRNFVVDYYETSSLCSQPAVVFQTKRSKQVCADPSESWVQEYVYDLELN
B2: CXCL16: CXC chemokine (protein, UniProt Q9H2A7 30-254, looked up)
C-X-C motif chemokine 16: NEGSVTGSCYCGKRISSDSPPSVQFMNRLRKHLRAYHRCLYYTRFQLLSWSVCGGNKDPWVQELMSCLDLKECGHAYSGIVAHQKHLLPTSPPISQASEGASSDIHTPAQMLLSTLQSTQRPTLPVGSLSSDKELTRPNETTIHTAGHSLAAGPEAGENQKQPEKNAGPTARTSATVPVLCLLAIIFILTAALSYVLCKRRRGQSPQSSPDLPVHYIPVAPDSNT

Key:
4T1 cells [1] = experiment: In vitro killing assay: TENs co-cultured with 4T1 cells in the presence of inhibitors or TGF-β; format: cell-based, mouse; settings: for neutrophil (TEN) mediated tumour-cell killing in the presence of inhibitor: TENs + 4T1 cells overnight, Apocynin 100 μM, Catalase 1,000 u/ml, Superoxide Dismutase 1,000 u/ml, Taurine 50 mM; for TEN mediated in vitro killing of 4T1 cells in the presence of TGF-β: picomolar concentrations (up to 200 pMolar)
Description: (§1) Antibodies used for immunohistochemistry—MMP9, F4/80 and CCR2 (all from AbCam), Myeloperoxidase (Dako), Ly-6G and Cd11b (both from BD), and Cleaved Caspase 3 (Cell signalling). Antibodies used for western blotting—Actin (Sigma), CCL2 (AbCam) and CCL5 (R&D) p-SMAD2 (cell signalling). Antibodies used for FACS analysis FITC-Ly-6G, FITC-Cd11b, FITC-F4/80, FITC-Cd34 and FITC-c-Kit (all from BD) and VEGFR1-AP (R&D). Neutrophil Depletion Neutrophil depletion was achieved using daily IP injections of 12.5 μg Rat anti-Gr-1 antibody (BD) or Rat anti-Ly-6G antibody (BD) starting on day 3 post tumour engraftment. Starting on day 14, neutrophil depleting antibodies were administered twice daily. Control mice were injected with […] Rat isotype control (BD). Neutrophil depletion was monitored by manual blood differentials and FACS analysis. Flow Cytometry Peripheral blood was collected into EDTA-coated tubes, washed and resuspended in FACS buffer solution (PBS, 2% heat-inactivated FCS, 5 mM EDTA, and 0.02% sodium azide). The samples were blocked with […] and then incubated with fluorophore-conjugated antibodies. Erythrocytes were then lysed with FACS lysing solution (BD Biosciences) and the cell suspensions were analyzed on a FACSCalibur (BD Biosciences). Colony Formation Assay Female nude mice were orthotopically injected with 5×10^6 puromicin resistant 4T1 cells. On days 7 and 14 post tumour engraftment the mice were sacrificed and perfused with PBS. The lungs and livers were removed, washed with PBS and dissociated with Collagenase A (Roche). The single cell suspension was then plated onto puromicin containing media and selected for 14 day. Colonies were stained with Methylene-Blue and counted manually. Mouse Neutrophil Purification Whole blood was collected by cardiac puncture using heparinized (Sigma) syringe. The blood was diluted with 5 volumes of PBS containing 0.5% BSA and subjected to a discontinuous Histopaque (Sigma) gradient (1.077 and 1.119). Neutrophils were collected from the 1.077-1.119 interface, lymphocytes and monocytes collected from the plasma-1.077 interface. RBCs were eliminated by hypotonic lysis. The cells were washed twice with PBS-BSA and re-suspended in OptiMEM (Invitrogen) 0.5% FBS in a final concentration of 2×10^6 cells/ml. Neutrophil purity and viability were determined visually and were consistently >98%. Human Neutrophil Purification As part of a Memorial Sloan-Kettering Cancer Center institutionally approved protocol, blood samples (˜10 cc) were collected from healthy volunteers or from patients who were already having blood drawn for pre-surgical testing. Patients were consented accordingly as part of the approved protocol. […] Patients had either mastectomies or lumpectomies planned and had blood drawn prior to definitive surgical removal of their primary tumor or chemotherapy. Blood samples were transferred to the lab for analysis no more than 1 hour post-blood draw. Heparinzed blood (20 U/ml final) was mixed with an equal volume of Dextran 500 (3% in saline) and incubated 30 minutes at room temperature. The leukocyte-rich supernatant was layered on top of histopaque 1077 (Sigma) and centrifuged. Neutrophils, collected in the pellet fraction, were resuspended in 10 ml 0.2% NaCl for 30 seconds to remove contaminating erythrocytes. Isotonicity was restored by the addition of 10 ml 1.6% NaCl. Neutrophils were than washed three times in Hanks's balanced salt solution and resuspended in RPMI+FCS2%. In vitro Killing Assay Luciferase labelled cells (5,000/well) were plated on a 96-well, flat bottom white polystyrene tissue culture plate in OptiMEM 0.5% FBS (mouse neutrophils) or RPMI 2% FBS (human neutrophils). 4 hours later, purified neutrophils (100,000/well for mouse neutrophils and 5000 for human neutrophils) were added to the plated tumour cells and co-cultured overnight. […]

MDA-MB-231 cells = experiment: In vitro killing assay: human neutrophils co-cultured with luciferase labelled MDA-MB-231 cells; format: cell-based; settings: naïve human neutrophils:tumor cells 1:1, chemokine 100 ng/ml (rhG-CSF 20 ng/ml), overnight
Description: Luciferase is under a constitutive promoter so cell death results in a decrease in luciferase activity because there is no transcription/translation of the lucierferase gene. The assay itself requires lysing of the cell to release the luciferase to mix with the luciferin and measure the luminescence. But it isn't that they dying cell releases luciferase. More signal means more luciferase which means more live cells. […]. […] Nave human neutrophils were co-cultured with MDA-MB-231 cells. […] Cells were seeded at a ratio of human neutrophils:human tumor cells=1:1.
as §1, with “NaCl.” for “NaCl. Neutrophils were than washed three times in Hanks's balanced salt solution and resuspended in RPMI+FCS2%. In vitro Killing Assay Luciferase labelled cells (5,000/well) were plated on a 96-well, flat bottom white polystyrene tissue culture plate in OptiMEM 0.5% FBS (mouse neutrophils) or RPMI 2% FBS (human neutrophils). 4 hours later, purified neutrophils (100,000/well for mouse neutrophils and 5000 for human neutrophils) were added to the plated tumour cells and co-cultured overnight.”

4T1 cells [2] = experiment: In vitro killing assay: naïve mouse neutrophils co-cultured with luciferase labelled 4T1 cells in the presence of chemokines; format: cell-based; settings: naïve mouse neutrophils co-cultured with 4T1 cells, chemokine 20 ng/ml, overnight
Description: as §1

4T1 cells [3] = experiment: In vivo stimulation of neutrophils with chemokines, purified neutrophils co-cultured with 4T1 cells; format: cell-based, mouse; settings: healthy mice treated in vivo with G-CSF alone or G-CSF plus chemokine
Procedure: A. To test which chemokines may participate in the stimulation of neutrophils, neutrophils purified from healthy mice were co-culture with luciferase labeled 4T1 cells in the presence (20 ng/ml of chemokine) or absence of certain chemokines for an overnight incubation. […] B. To test which chemokines are sufficient for in vivo stimulation of neutrophils healthy mice were treated with G-CSF (to boost neutrophil numbers) and either CCL2, CCL5 or CXCL1. Control mice were treated with G-CSF alone. Neutrophils were purified from these mice and co-cultured with Luciferase-labeled 4T1 cells. […] Conclusion—CCL2 and to a lesser degree CCL5 can stimulate tumor cell killing both in vitro and in vivo.

Molecule	neutrophil cytotoxicity / neutrophil mediated killing of MDA-MB-231 cells (MDA-MB-231 cells)	neutrophil mediated killing of 4T1 cells (tumor cell viability by luciferase activity) (4T1 cells [2])	also measured
NCCS(=O)(=O)O [Taurine]	–	–	neutrophil (TEN) mediated tumour-cell killing in the presence of inhibitor (4T1 cells [1]): does not inhibit tumour-cell killing; neutrophil (TEN) mediated tumour-cell killing in the presence of inhibitor (4T1 cells [1]; listed as taurine): did not reduce tumour-cell killing
CCL3: CC chemokine	significantly increase neutrophil cytotoxicity	no significant effect on tumor-cell viability	–
CXCL1: CXC chemokine	to a lesser extent CXCL1 significantly increase neutrophil cytotoxicity	no significant effect on tumor-cell viability	viability of 4T1 cells co-cultured with neutrophils purified from chemokine treated mice (4T1 cells [3]): did not induce a reduction in cell viability
CXCL12: CXC chemokine	significantly increase neutrophil cytotoxicity	no significant effect on tumor-cell viability	–
Catalase	–	–	neutrophil (TEN) mediated tumour-cell killing in the presence of inhibitor (4T1 cells [1]): completely inhibits tumour-cell killing; neutrophil (TEN) mediated tumour-cell killing in the presence of inhibitor (4T1 cells [1]; listed as catalase): completely inhibits cell killing
Superoxide Dismutase	–	–	neutrophil (TEN) mediated tumour-cell killing in the presence of inhibitor (4T1 cells [1]): does not; neutrophil (TEN) mediated tumour-cell killing in the presence of inhibitor (4T1 cells [1]; listed as superoxide dismutase): did not inhibit cell death
TGF-β	–	–	TEN mediated in vitro killing of 4T1 cells in the presence of TGF-β (4T1 cells [1]): dramatic inhibitory effect; TEN mediated in vitro killing of 4T1 cells in the presence of TGF-β (4T1 cells [1]; listed as TGF-Beta): dramatically inhibited TENs cytotoxicity towards tumour cells
hCCL2: human CCL2 from R&D, used at 100 ng/ml	induces neutrophil mediated cell killing; also recorded: induce the killing of human MDA-MB-231 in vitro	–	–
hCCL5: human CCL5 from R&D, used at 100 ng/ml	induces neutrophil mediated cell killing; also recorded: induce the killing of human MDA-MB-231 in vitro	–	–
mCCL2: mouse CCL2 from R&D, used at 20 ng/ml	–	induces neutrophil mediated cell killing; also recorded: induced tumour cell killing in vitro	–
B1	but not CCL4 significantly increase neutrophil cytotoxicity	significant reduction in tumor cell viability	–
B2	significantly increase neutrophil cytotoxicity	significant reduction in tumor cell viability	–
